Experimental data from publication PMC6333900, “Discovery of peptide ligands targeting a specific ubiquitin-like domain–binding site in the deubiquitinase USP11” (The Journal of Biological Chemistry, 2018).
*: point of attachment. 5TAMRA = CN(C)c1ccc2c(c1)Oc1cc(N(C)C)ccc1C21OC(=O)c2cc(C(=O)*)ccc21

Tests used:
U87 cells = assay: Cell viability (Presto Blue assay), U87; assay type: cell-based, human; conditions: 24 h, n = 3
Description: (§1) Cells were plated in 96-well plates (2.5 × 10^4 cells/well) and treated with GET-FYLIR (0–50 μM) for 24 h. Cells were also treated with GET-Scrambled as a control. After treatment, cells were washed with PBS and then incubated for 15 min at 37 °C with a 100-μl Presto Blue solution (10% Presto Blue, Invitrogen in Hanks' balanced salt solution, Sigma). Change in the fluorescence was measured using a plate reader with the excitation/emission wavelengths set at 560/590 nm (Infinite® 200 PRO, TECAN), with untreated cells used as a control. All data sets were combined for the statistical analysis. A Sidak's multiple comparisons test was applied. N refers to the number of biological replicates.

[1] = test system: KNS-42, U87, HeLa, MCF7, Panc1, NIH3T3 and BJ6 cell lines; assay: Cellular delivery by GET system; assay type: cell-based; conditions: TAMRA-tagged peptide
From the text: We next evaluated the effect of the FYLIR peptide ligand on cells in culture. The novel GET system, developed for highly efficient nucleic acid, protein and peptide delivery ([35]), was used to deliver the FYLIR peptide. GET is based on the use of cell-penetrating peptides modified with heparin-binding sequences, which enhance cellular uptake by endocytosis. The synthetic peptide, GET-FYLIR, designed for these studies harbored an N-terminal TAMRA fluorescent tag, for easy visualization, fused to the GET (P21 and 8 Arg ([35])) and FYLIR sequences. […] Having established efficient delivery, the peptide's effect was investigated by assessing cell viability.

NIH3T3 cells [2] = assay: Cell cycle analysis (propidium iodide, flow cytometry), NIH3T3; assay type: cell-based; conditions: NIH3T3, 20 μM, 24 h, n = 5
Description: (§2) Cells were plated in 24-well plates (1 × 10^5 cells/well) and treated with GET-FYLIR (20 μM) for 24 h. The cells were treated with trypsin, detached from the plate, and centrifuged at 200 × g for 5 min. The supernatant was aspirated, and the cells were resuspended in PBS. The cells were fixed in 70% ethanol for 1 h at 4 °C. The cells were washed with PBS and incubated in propidium iodide staining solution (0.1% (v/v) Triton X-100, 10 μg/ml propidium iodide (Sigma), and 100 μg/ml DNase-free RNase A in PBS) for 30 min at room temperature. Cells were analyzed using an FC500 flow cytometer (Beckman Coulter) equipped with a 488-nm laser, and data from at least 10,000 cells were acquired for each sample. Cells were gated based on forward and side scatter, and doublets excluded by height/area analysis. Cell cycle percentages were calculated by curved fit using Weasel Version 3.0 (Walter and Eliza Hall Institute of Medical Research). Data shown are representative. All data sets were combined for the statistical analysis. A Sidak's multiple comparisons test was applied. N refers to the number of biological replicates. All curves and statistical analyses were produced using Prism 7 (GraphPad Software).

NIH3T3 cells [3] = assay: Cell viability (Presto Blue assay), NIH3T3; assay type: cell-based; conditions: for cell viability: 24 h, Presto Blue, n = 3
Description: as §1

Panc1 cells [4] = assay: Cell uptake (flow cytometry), Panc1; assay type: cell-based, human; conditions: 1 h and 24 h, compared with NIH3T3, flow cytometry
Description: (§3) Cells treated with GET-FYLIR or GET-Scrambled were analyzed on an Astrios cell sorter using a 488-nm […] laser (40,000 cells; gated on live cells by forward/side scatter). Gmean was used as the average cell intensity. All data sets were combined for the statistical analysis. A Sidak's multiple comparisons test was applied. N refers to the number of biological replicates.

Panc1 cells [5] = assay: Cell viability (Presto Blue assay), Panc1; assay type: cell-based, human
Description: as §1

Panc1 cells [6] = assay: Cell cycle analysis (propidium iodide, flow cytometry), Panc1; assay type: cell-based, human; conditions: Panc1, 20 μM, 24 h, p < 0.0001, n = 7
Description: as §2

[7] = test system: BJ6 human dermal fibroblasts; assay: Cell viability (Presto Blue assay), BJ6; assay type: cell-based; conditions: 24 h; for cell viability: n = 3
Description: as §1

NIH3T3 cells [8] = assay: Cell uptake (flow cytometry), NIH3T3; assay type: cell-based; conditions: compared with Panc1, flow cytometry
Description: as §3

HeLa cells = assay: Confocal microscopy, intracellular localization; assay type: cell-based, human; conditions: 10 μM, 24 h, confocal imaging
Description: HeLa cells were plated onto 10-mm diameter glass coverslips (1 × 10^5 cells/coverslip). Cells treated with GET-FYLIR were fixed for 10 min in 3.7% (w/v) paraformaldehyde (Sigma), stained with 1 μg/ml Hoechst 33342 (Molecular Probes) for a further 10 min, washed, and mounted. Cells were imaged using an LSM880C confocal microscope (Zeiss, Germany). A ×63 objective lens was used with a […] laser used for Hoechst 33342 and a 561-nm DPSS laser for GET-FYLIR–transduced cells. Images were captured and processed using ZEN software (Zeiss, Germany).

Panc1 cells [9] = conditions: cited from earlier work
From the text: (§4) Several reports link USP11 to cell cycle progression and proliferation, although the detailed mechanisms are only partially understood. For example, (i) cell growth assays in MCF-7 and MDA-MB-231 cells show an increase in cell numbers upon USP11 overexpression, whereas USP11 knockdown leads to growth inhibition ([48]); (ii) USP11 itself is under cell cycle control and turns over rapidly in G1 cells, especially upon DNA damage induction, whereas expression of USP11 in S phase is high and insensitive to DNA damage ([12]). Knockdown of USP11 results in the activation of DNA damage-response pathwa ...

USP11 = conditions: cited from earlier work
From the text: as §4

## 5TAMRA-KRKKKGKGLGKKRDPCLRKYKRRRRRRRRAEGEFYKLKIRTPR-NH2 [GET-FYLIR]
U87 cells; U87, 10 μM
  cell viability: retained
U87 cells; U87, 20 μM
  cell viability: minimal effect
[1]
  cellular delivery: efficiently delivered to all cell lines tested
NIH3T3 cells [2]; from 0.2% untreated, not significant, p = 0.9992
  subG0 fraction: 0.8%
NIH3T3 cells [2]; from 24.8% untreated, p < 0.0001
  fraction of cells in S phase: 37.5%
NIH3T3 cells [3]; NIH3T3, 5 μM, uptake experiment, 1 and 24 h
  cell viability effects: cell viability effects in Panc1 but not NIH3T3 cells were observed
NIH3T3 cells [3]; NIH3T3, 10 μM
  cell viability: retained
NIH3T3 cells [3]; NIH3T3, 20 μM
  cell viability: minimal effect
Panc1 cells [4]; Panc1, 1 μM
  cell uptake: little difference in cell uptake in either cell type
Panc1 cells [4]; Panc1, 5 μM
  cell uptake: increased uptake in Panc1 cells for both 1- and 24-h incubations
Panc1 cells [5]; Panc1, 5 μM, uptake experiment, 1 and 24 h
  cell viability effects: cell viability effects in Panc1 but not NIH3T3 cells were observed
Panc1 cells [5]; Panc1, 10 μM, 24 h, Presto Blue, n = 3 biological repeats
  loss of viability: ~50%
Panc1 cells [5]; Panc1, up to 50 μM, 24 h, Presto Blue
  sensitivity to dose (viability): particularly sensitive
Panc1 cells [6]; from 0.9% untreated
  subG0 fraction: 8%
Panc1 cells [6]; from 36.9% untreated
  fraction of cells in S phase: 52.8%
Panc1 cells [6]; versus untreated
  fold increase of subG0 fraction: ~9 fold
[7]; BJ6, 10 μM
  cell viability: retained
[7]; BJ6, 20 μM
  cell viability: minimal effect
[7]; BJ6, up to 50 μM
  sensitivity to dose (viability): relatively insensitive
NIH3T3 cells [8]; NIH3T3, 1 μM, 1 h and 24 h
  cell uptake: little difference in cell uptake in either cell type
NIH3T3 cells [8]; NIH3T3, 5 μM, both incubation times
  cell uptake: significantly lower than Panc1 cells
HeLa cells
  endosomal escape: efficiently escapes endosomal vesicles
  subcellular localization: both the cell cytoplasm and the nucleus, with the highest accumulation in nucleoli

## O=C1c2c(O)ccc(O)c2C(=O)c2c(NCCNCCO)ccc(NCCNCCO)c21 [mitoxantrone]
Panc1 cells [9]
  cell death: dose-dependent cell death
USP11
  USP11 inhibition: inhibits USP11
